According to patent US10342796B2, “Acrylanilide derivative, preparation method, and applications thereof in pharmacy” (Ancureall Pharmaceutical (Shanghai) Co., Ltd., priority 2015, dated 2019):
Like-named read-outs stand apart in the source and are kept apart here.

Tests used:
Assay in all cases: Growth inhibition GI50 in vitro (CCK8/MTT, 72 h)
[1] = system: SH-SY5Y (ALK F1174L); assay type: cell-based; details: Homo sapiens, EGFR wt
Description: Neuroblastoma cell line SH-SY5Y (ALK F1174L positive) (Shanghai Cell Bank of Chinese Academy of Sciences) was cultured with MEM complete medium (supplement with 10% FBS, 1% NEAA, 1% double-antibiotics and 1 mM of sodium pyruvate).
(§1) The suspension cells were collected by centrifugation. The supernatant was discard and the cell pellet was resuspended and counted. Different cell concentrations (5˜10×10^4 cells/mL) were prepared according to the growth cycle of each cell line and then seeded on a 96-well plate (Corning), 100 μL/well. The cells were incubated over night at 37° C., 5% CO2. The compounds were added to the cells on the second day with 2 wells in parallel. The final concentration of organic solvent shall not exceed 1%. The cells were continually incubated for 72 h, and then subjected to MTT assay.
(§2) The present compounds and the reference compounds were dissolved with DMSO (Sigma), respectively. […] The storage concentration of compounds was 10 mM and kept at −20° C. They were diluted by 2 times or 10 times with serial dilution before using.
(§3) Dojindo CCK8 reagent kit was used as MTT assay. […] FC meter was used as microplate reader.
(§4) Adherent cell culture medium was discard and immediately replaced with fresh prepared medium which contains 10% CCK8 reagent (100 μL/well). For the suspension cells, CCK8 was directly added to 10% of the final concentration. The cells were continually incubated for 1˜4 h. When the color of control wells turned to dark yellow, the absorption value was measured at OD450 nm. The cell growth rate was calculated according to the following formula: cell growth rate (%)=100*(T−T0)/(C−T0), T=optical density of drug treatment cell well—optical density of blank control well; T0=optical density of cell well before drug treatment—optical density of blank control well; C=optical density of cell well of solvent control group—optical density of blank control well. […] The experiment was independently repeated 1˜3 times, and subject to biological statistical analysis.
(§5) Growth inhibition assay was conducted in the cell lines shown Table 14 with the different oncogene mutations. Each compound started at 1000 nM as an initial concentration and was diluted by 2 times with serial dilution to 0.03 nM.

[2] = system: MKN-45 (Met amp); assay type: cell-based; details: Homo sapiens, MKN-45, EGFR wt
Description: (§6) Human gastric cancer cell line MKN-45 (ATCC) and NSCLC cell line NCI-H1993 (ATCC) were cultured with 1×RPMI1640 complete medium which was supplement with 10% FBS, respectively.
as §1, §2, §3, §4, §5

[3] = system: H1993 (Met amp); assay type: cell-based; details: Homo sapiens, NCI-H1993, H1993, EGFR wt
Description: as §6, §1, §2, §3, §4, §5

[4] = system: Ramos (BTK); assay type: cell-based, human; details: for GI50: Homo sapiens, Ramos, BTK; for inhibition effects: BTK+ Ramos cells
Description: RAMOS is human B lymphocytic leukemia cell line positively expressing BTK. It was cultured with 1×RPMI1640 complete medium (supplement with 10% FBS).
as §1, §2, §3, §4, §5

[5] = system: Kasumi-1 (Kit N822K); assay type: cell-based; details: Homo sapiens
Description: Kasumi-1 is a leukemia cell line positively expressing c-Kit N822K mutant Abnormal variation of c-Kit often appears in cancer patients. Kasumi-1 cell line was cultured with 1×RPMI1640 complete medium (supplement with 10% FBS).
as §1, §2, §3, §4, §5

[6] = system: H2228 (EML4-ALK); assay type: cell-based; details: Homo sapiens, NCI-H2228, H2228, EGFR wt
[7] = system: NCI-H1781 (HER2 exon 20 G776VC mutation); assay type: cell-based; details: Homo sapiens
[8] = system: HCT116 (EGFR wt, Kras G13D); assay type: cell-based; details: Homo sapiens, HCT-116
Description: as §1, §2, §3, §4, §5

[9] = HCT116, EGFR wt, Kras G13D, read-out: GI50
[10] = NCI-H1781, Table 16, 1000 nM to 0.03 nM serial dilution, read-out: GI50 H1781 (HER2 G776VC)

Row | GI50 [1] [nM] | GI50 [2] [nM] | GI50 [3] [nM] | GI50 [4] [nM] | GI50 [6] [nM] | GI50 [8, 9] [nM] | GI50 [7, 10] [nM] | Compound | GI50 [5] [nM] | GI50 ([7]; NCI-H1781, read-out: GI50 H1781 (HER2 G776VC)) [nM] | GI50 [8] [nM] | inhibition effects [4]
1 | > 1000 | > 1000 | > 1000 | 234 | > 500 | > 1000 |  | C=CC(=O)Nc1cc(Nc2nccc(Nc3cccc(Cl)c3)n2)c(OC)cc1N(C)CCN(C)C [Compound 2, N-(5-(4-(3-chloro-phenylamino)-pyrimidin-2-ylamino)-2-(2-(dimethylamino-ethyl)-methyl-amino)-4-methoxyl-phenyl)-acrylamide] | > 1000 |  |  | 
2 | > 1000 | > 1000 | > 1000 | 937 | > 500 | > 1000 |  | C=CC(=O)Nc1cc(Nc2nccc(Nc3ccc(OCc4ccccn4)c(Cl)c3)n2)c(OC)cc1N(C)CCN(C)C [Compound 18, N-(5-(4-(3-chloro-4-(pyridin-2-methoxyl)phenylamino)pyrimidin-2-ylamino)-2-((2-(dimethylamino)ethyl)(methyl)amino)-4-methoxyl-phenyl)-acrylamide] | > 1000 |  |  | 
3 | > 1000 | 500 | > 1000 |  | > 500 | > 1000 |  | C=CC(=O)Nc1cc(Nc2ncc(Cl)c(Nc3ccc(OCc4ccccn4)c(Cl)c3)n2)c(OC)cc1N(C)CCN(C)C [Compound 19, N-(5-(5-chloro-4-(3-chloro-4-(pyridin-2-methoxyl)phenylamino)-pyrimidin-2-ylamino)-2-((2-(dimethylamino)ethyl)(methyl)amino)-4-methoxyl-phenyl)-acrylamide] | > 1000 |  |  | 
4 |  |  |  |  |  |  | 1.92 | C=CC(=O)Nc1cc(Nc2nccc(-n3ccc4c(OC)cccc43)n2)c(OC)cc1N(C)CCN(C)C [Compound 99, N-(5-(4-(4-methoxyl-1H-indol-1-yl)-pyrimidin-2-ylamino)-2-(2-(dimethylamino-ethyl)-methyl-amino)-4-methoxyl-phenyl)-acrylamide] |  |  |  | 
5 | > 1000 | > 1000 | > 1000 | 234 | > 500 | > 1000 |  | C=CC(=O)Nc1cc(Nc2nccc(-n3cnc4ccccc43)n2)c(OC)cc1N(C)CCN(C)C [Compound 106] | > 1000 |  |  | 
6 | > 1000 | 465 | > 1000 | 96.6 | > 500 | > 1000 |  | C=CC(=O)Nc1cc(Nc2ncnc(Nc3cccc(F)c3)n2)c(OC)cc1N(C)CCN(C)C [Compound 114, N-(5-(4-(3-fluoro-phenylamino)-[1,3,5]triazin-2-ylamino)-2-((2-dimethylamino-ethyl)-methyl-amino)-4-methoxyl-phenyl)-acrylamide] | < 100 |  |  | moderate inhibition effects
7 |  | 465 |  | 148 | > 500 | > 1000 |  | C=CC(=O)Nc1cc(Nc2ncnc(Nc3cccc(Br)c3)n2)c(OC)cc1N1CCC(N2CCCC2)CC1 [Compound 118] | < 100 |  |  | moderate inhibition effects
8 |  |  |  |  |  |  | 7.32 | C=CC(=O)Nc1cc(Nc2cc(Nc3cc(OC)c(Cl)cc3Cl)ncn2)c(OC)cc1N(C)CCN(C)C [Compound 136, N-(5-(6-(2,4-dichloro-5-methoxyl-phenylamino)-pyrimidin-4-ylamino)-2-((2-dimethylamino-ethyl)-methyl-amino)-4-methoxyl-phenyl)-acrylamide] |  |  |  | 
9 | > 1000 | > 1000 | > 1000 | 58.6 | > 500 | > 1000 |  | C=CC(=O)Nc1cc(Nc2cc(Nc3ccc(F)c(Cl)c3)ncn2)c(OC)cc1N(C)CCN(C)C [Compound 140, N-(5-(6-(3-chloro-4-fluoro-phenylamino)-pyrimidin-4-ylamino)-2-((2-dimethylamino-ethyl)-methyl-amino)-4-methoxyl-phenyl)-acrylamide] | > 1000 |  |  | moderate inhibition effects
10 | > 1000 | > 1000 | > 1000 | 46.8 | > 500 | > 1000 |  | C=CC(=O)Nc1cc(Nc2cc(Nc3ccc(F)c(Cl)c3)ncn2)c(OC)cc1N1CCN(C2CCN(C)CC2)CC1 [Compound 147, N-(5-(6-(3-chloro-4-fluoro-phenylamino)-pyrimidin-4-ylamino)-4-methoxyl-2-(4-(1-methylpiperidin-4-yl)-piperazin-1-yl)-phenyl)-acrylamide] | > 1000 |  |  | 
11 | > 1000 | 500 | > 1000 | 78.1 | > 500 | > 1000 |  | C=CC(=O)Nc1cc(Nc2cc(-c3cn(C(C)C)c4ccccc34)ncn2)c(OC)cc1N(C)CCN(C)C [Compound 183] | > 1000 |  |  | moderate inhibition effects
12 |  |  |  |  |  |  | 1.52 | C=CC(=O)Nc1cc(Nc2nccc(-n3ccc4c(OCCOC)cccc43)n2)c(OC)cc1N(C)CCN(C)C [Compound 205, N-(5-(4-(4-(2-methoxyl-ethoxyl)-1H-indol-1-yl)-pyrimidin-2-ylamino)-2-(2-(dimethylamino-ethyl)-methyl-amino)-4-methoxyl-phenyl)-acrylamide] |  |  |  | 
13 |  |  |  |  |  |  | 19.5 | C=CC(=O)Nc1cc(Nc2cc(Nc3ccc(OCC4CCOCC4)c(Cl)c3)ncn2)c(OC)cc1N(C)CCN(C)C [Compound 216, N-(5-(6-(3-chloro-4-(tetrahydropyran-4-yl-methoxyl)-phenylamino)-pyrimidin-4-ylamino)-2-((2-dimethylaminoethyl)-methyl-amino)-4-methoxyphenyl)-acrylamide] |  |  |  | 
14 |  |  |  |  |  |  | 0.96 | C=CC(=O)Nc1cc(Nc2cc(Nc3cc(F)c(OC)c(Cl)c3)ncn2)c(OC)cc1N(C)CCN(C)C [Compound 236, N-(5-(6-(3-chloro-5-fluoro-4-methoxyphenylamino)-pyrimidin-4-yl-amino)-2-((2-dimethylamino-ethyl)-methyl-amino)-4-methoxyl-phenyl)-acrylamide] |  |  |  | 

Row | Compound | GI50 [1] [nM] | GI50 [2] [nM] | GI50 [3] [nM] | GI50 [4] [nM] | GI50 [6] [nM] | GI50 [8, 9] [nM] | GI50 [7, 10] [nM] | GI50 [5] [nM] | GI50 ([7]; NCI-H1781, read-out: GI50 H1781 (HER2 G776VC)) [nM] | GI50 [8] [nM] | inhibition effects [4]
15 | C=CC(=O)Nc1cc(Nc2nccc(-c3cn(C)c4ccccc34)n2)c(OC)cc1N(C)CCN(C)C [AZD9291, reference compound] | > 1000 | > 1000 | > 1000 | 937 | > 500 |  |  | > 1000 | 195 | > 1000 | 
